Reference: ChEMBL document CHEMBL4627296, “Enhanced cellular uptake efficiency of DCM probes or SN38 conjugating with phenylboronic acids” (Bioorg Med Chem, 2020)

Experiments:
HepG2 [1] = assay: Antiproliferative activity against human HepG2 cells assessed as inhibition of cell proliferation after 72 hrs by MTT assay; assay type: functional, cell-based; conditions: HepG2, 72 h
[2] = Drug metabolism in human HepG2 cells assessed as SN38 release at 10 uM measured after 24 hrs by microplate reader analysis; assay type: ADME, cell-based; conditions: hepg2, 24 h
HepG2 [3] = assay: Potency index, ratio of compound uptake to irinotecan uptake in human HepG2 cells at 10 uM measured after 24 hrs by microplate reader analysis; assay type: ADME, cell-based; conditions: hepg2, 24 h
[4] = Drug uptake in human A549 cells at 10 uM measured after 24 hrs by confocal laser scanning microscopic analysis; assay type: ADME, cell-based; conditions: a549, 24 h
[5] = Drug uptake in human HepG2 cells at 10 uM measured after 24 hrs by confocal laser scanning microscopic analysis; assay type: ADME, cell-based; conditions: hepg2, 24 h
[6] = Drug uptake in human HepG2 cells at 10 uM measured after 1 hr by fluorescence analysis; assay type: ADME, cell-based; conditions: hepg2, 1 h
[7] = Drug uptake in human HepG2 cells assessed as mean fluorescence intensity at 10 uM measured after 1 hr by flow cytometry analysis (reference value: 2.74); assay type: ADME, cell-based; conditions: hepg2, 1 h
[8] = Solubility of the compound in water; assay type: physicochemical; conditions: buffer

Row | Structure (SMILES) | IC50 (HepG2 [1]) [µM] | Drug metabolism [2] | Ratio (HepG2 [3]) | Drug uptake [4] | Drug uptake [5] | Drug uptake [6] | Flu intensity [7] | solubility [8]
1 | CCc1c2c(nc3ccc(OC(=O)N4CCC(CNC(=O)Nc5ccc6c(c5)B(O)OC6)CC4)cc13)-c1cc3c(c(=O)n1C2)COC(=O)[C@]3(O)CC | 0.84 | Metabolite_Notdetected | 3 | Active | Active | – | – | –
2 | CCN(CCn1cc(COCCOCCOCCOCCNC(=O)Nc2ccc3c(c2)B(O)OC3)nn1)c1ccc(/C=C/C2=CC(=C(C#N)C#N)c3ccccc3O2)cc1 | – | – | – | – | – | Active | 86.91 | –
3 | CCN(CCn1cc(COCCOCCOCCOCCNC(=O)c2ccc(B(O)O)cc2)nn1)c1ccc(/C=C/C2=CC(=C(C#N)C#N)c3ccccc3O2)cc1 | – | – | – | – | – | Active | 99.42 | –
4 | CCN(CCn1cc(COCCOCCOCCOCCO)nn1)c1ccc(/C=C/C2=CC(=C(C#N)C#N)c3ccccc3O2)cc1 | – | – | – | – | – | Active | 64.89 | Soluble
5 | CCN(CCn1cc(COCCOCCOCCOCCNC(=O)c2cc(B(O)O)cc([N+](=O)[O-])c2)nn1)c1ccc(/C=C/C2=CC(=C(C#N)C#N)c3ccccc3O2)cc1 | – | – | – | – | – | Active | 11.83 | –
6 | CCc1c2c(nc3ccc(OC(=O)N4CCC(N5CCCCC5)CC4)cc13)-c1cc3c(c(=O)n1C2)COC(=O)[C@]3(O)CC | 0.95 | – | – | – | – | – | – | –
7 | CCc1c2c(nc3ccc(OC(=O)N4CCC(CNC(=O)c5ccc(B(O)O)cc5)CC4)cc13)-c1cc3c(c(=O)n1C2)COC(=O)[C@]3(O)CC | 1.59 | Metabolite_Notdetected | 7 | Active | Active | – | – | –
8 | CCN(CCn1cc(COCCOCCOCCOCCNC(=O)c2cccc([N+](=O)[O-])c2)nn1)c1ccc(/C=C/C2=CC(=C(C#N)C#N)c3ccccc3O2)cc1 | – | – | – | – | – | Active | 28.12 | Soluble
